{"source": "paper PMC12580894", "about": "(Cancer Research Communications, 2025)", "origin": "cited, not measured here", "key": {"[1]": {"test_system": "untreated advanced urothelial carcinoma"}, "[2]": {"test_system": "patients with advanced solid tumours", "conditions": "berzosertib with cisplatin"}}}
{"smiles": "CNCc1ccc(-c2cc(-c3nc(-c4ccc(S(=O)(=O)C(C)C)cc4)cnc3N)on2)cc1", "note": "[berzosertib]", "values": [{"measurement": "Hematologic toxicity rates", "setting": "[1]; GC plus berzosertib versus GC alone", "value": "higher"}, {"measurement": "clinical benefit upon the addition of berzosertib", "setting": "[1]; gemcitabine and cisplatin (GC) with or without berzosertib", "value": "no clinical benefit"}, {"measurement": "patients with a confirmed PR", "setting": "[2]; despite prior platinum exposure, 31 patients", "value": "Two"}, {"measurement": "most common AEs", "setting": "[2]; phase I", "value": "hematologic in nature"}, {"measurement": "DLTs observed", "setting": "[2]; phase I, 31 patients", "value": "a grade 3 hypersensitivity reaction and a grade 3 increase in alanine aminotransferase"}]}
